In ChEMBL document CHEMBL4118081, “Design, synthesis, and biological evaluation of optimized phthalazine derivatives as hedgehog signaling pathway inhibitors” (Eur J Med Chem, 2017):
Activity calls are given as the source filed them. The calls are words filed in the database; no cut-off is given here.

Legend:
[1] = Inhibition of hedgehog signaling pathway in mouse NIH/3T3 Light2 cells by Gli-luciferase reporter gene assay; format: cell-based; conditions: NIH3T3
Medulloblastoma cell [2] = assay: Antiproliferative activity against Ptch+/- and p53-/- mouse medulloblastoma cells after 36 hrs by Brdu incorporation assay; format: functional, cell-based
Mus musculus = organism: Mus musculus; assay: Potency index, ratio of vismodegib IC50 to compound IC50 for hedgehog signaling pathway in mouse NIH/3T3 Light2 cells; format: cell-based
Medulloblastoma cell [3] = assay: Antitumor activity against Ptch+/- and p53-/- mouse medulloblastoma cells allografted in athymic nude mouse assessed as tumor growth inhibition at 50 mg/kg, po bid administered daily via gavage for 13 days; format: functional, organism-based
Medulloblastoma cell [4] = assay: Antitumor activity against Ptch+/- and p53-/- mouse medulloblastoma cells allografted in athymic nude mouse assessed as tumor growth inhibition at 100 mg/kg, po qd administered daily via gavage for 13 days; format: functional, organism-based
[5] = AUC (0 to infinity) in Sprague-Dawley rat at 2 mg/kg, iv administered as single dose; format: ADME, organism-based; design: dose 2 mg/kg, time infinity, route intravenous; conditions: in vivo
[6] = Clearance in Sprague-Dawley rat at 2 mg/kg, iv administered as single dose; format: ADME, organism-based; conditions: in vivo
[7] = Volume of distribution at steady state in Sprague-Dawley rat at 2 mg/kg, iv administered as single dose; format: ADME, organism-based; conditions: in vivo, read-out: Vdss
[8] = Half life in Sprague-Dawley rat at 2 mg/kg, iv administered as single dose; format: ADME, organism-based; conditions: in vivo
[9] = AUC (0 to infinity) in Sprague-Dawley rat at 10 mg/kg, po administered as single dose; format: ADME, organism-based; design: dose 10 mg/kg, time infinity, route oral; conditions: in vivo
[10] = Cmax in Sprague-Dawley rat at 10 mg/kg, po administered as single dose; format: ADME, organism-based; design: dose 10 mg/kg, route oral; conditions: in vivo
[11] = Tmax in Sprague-Dawley rat at 10 mg/kg, po administered as single dose; format: ADME, organism-based; conditions: in vivo
[12] = Oral bioavailability in Sprague-Dawley rat at 10 mg/kg administered as single dose; format: ADME, organism-based; conditions: in vivo

Compound | IC50 [1] [nM] | further results
Cn1nccc1-c1nnc(N2CC(NC(=O)c3ccc(F)cc3C(F)(F)F)C2)c2ccccc12 | > 1000 | 
Cn1nccc1-c1nnc(N2CC3(CN(C(=O)c4ccc(F)cc4C(F)(F)F)C3)C2)c2ccccc12 | 442 | 
O=C(N[C@@H]1CCN(c2nnc(-c3ccc(CO)cc3)c3ccccc23)C1)c1ccc(F)cc1C(F)(F)F | 0.17 | IC50 (Medulloblastoma cell [2]): 24.6 nM; Ratio IC50 (Mus musculus): 23; TGI (Medulloblastoma cell [3]): Active; TGI (Medulloblastoma cell [4]): Active; AUC(0-inf) [5]: 0.88 µM·h; clearance [6]: 74.7 mL/min/kg; Vd [7]: 1.47 L/kg; half-life [8]: 19.2 min; AUC(0-inf) [9]: 0.33 µM·h; Cmax [10]: 480 nM; Tmax [11]: 15 min; bioavailability [12]: 7.4%
O=C(NC1CCN(c2nnc(-c3ccccc3Cl)c3ccccc23)C1)c1ccc(F)cc1C(F)(F)F (racemic) | 6.51 | 
Cn1nccc1Nc1nnc(N2CCC(NC(=O)c3ccc(F)cc3C(F)(F)F)C2)c2ccccc12 (racemic) | > 100 | 
O=C(NC1CCN(c2nnc(-c3ccccc3)c3ccccc23)C1)c1ccc(F)cc1C(F)(F)F (racemic) | 3.43 | 
Cn1nccc1-c1nnc(N2CCCC(NC(=O)c3ccc(F)cc3C(F)(F)F)C2)c2ccccc12 (racemic) | > 1000 | 
Cn1cc(-c2nnc(N3CCC(NC(=O)c4ccc(F)cc4C(F)(F)F)C3)c3ccccc23)cn1 (racemic) | > 100 | 
Cn1nccc1-c1nnc(N2CCC(NC(=O)c3ccc(F)cc3C(F)(F)F)C2)c2ccccc12 (racemic) | 4.75 | 
O=C(NC1CCN(c2nnc(-c3ccncc3)c3ccccc23)C1)c1ccc(F)cc1C(F)(F)F (racemic) | 10.7 | 
Cc1ccc(-c2nnc(N3CCC(N(C)C(=O)c4ccc(F)cc4C(F)(F)F)C3)c3ccccc23)cc1 (racemic) | 2.93 | 
Cn1nccc1-c1nnc(NC2CCN(C(=O)c3ccc(F)cc3C(F)(F)F)C2)c2ccccc12 (racemic) | > 1000 | 
CN(C(=O)c1ccc(F)cc1C(F)(F)F)C1CCCN(c2nnc(-c3ccnn3C)c3ccccc23)C1 (racemic) | > 1000 | 
O=C(NC1CCN(c2nnc(NCc3ccccc3)c3ccccc23)C1)c1ccc(F)cc1C(F)(F)F (racemic) | > 100 | 
CN(C(=O)c1ccc(F)cc1C(F)(F)F)C1CCN(c2nnc(-c3ccc(CO)cc3)c3ccccc23)C1 (racemic) | 1.36 | 
CN(C(=O)c1ccc(F)cc1C(F)(F)F)C1CCN(c2nnc(-c3ccnn3C)c3ccccc23)CC1 [TALADEGIB] | 6.3 | IC50 (Medulloblastoma cell [2]): 43.5 nM; TGI (Medulloblastoma cell [3]): Active
CS(=O)(=O)c1ccc(C(=O)Nc2ccc(Cl)c(-c3ccccn3)c2)c(Cl)c1 [VISMODEGIB] | 2.3 | IC50 (Medulloblastoma cell [2]): 30.4 nM

More lines, main results first:

IC50 [1] [nM] | Compound | further results
1.16 | Cc1ccc(-c2nnc(N3CC[C@@H](NC(=O)c4ccc(F)cc4C(F)(F)F)C3)c3ccccc23)cc1 | IC50 (Medulloblastoma cell [2]): 20.1 nM
> 100 | Cc1ccc(-c2nnc(N3CC[C@H](NC(=O)c4ccc(F)cc4C(F)(F)F)C3)c3ccccc23)cc1 | 
> 100 | O=C(N[C@H]1CCN(c2nnc(-c3ccc(CO)cc3)c3ccccc23)C1)c1ccc(F)cc1C(F)(F)F | 
0.88 | Cc1ccc(-c2nnc(N3CCC(NC(=O)c4ccc(F)cc4C(F)(F)F)C3)c3ccccc23)cc1 (racemic) | 
14 | N#Cc1ccc(-c2nnc(N3CCC(NC(=O)c4ccc(F)cc4C(F)(F)F)C3)c3ccccc23)cc1 (racemic) | 
10.9 | O=C(NC1CCN(c2nnc(-c3ccc(Cl)cc3)c3ccccc23)C1)c1ccc(F)cc1C(F)(F)F (racemic) | 
0.95 | O=C(NC1CCN(c2nnc(-c3ccc(CO)cc3)c3ccccc23)C1)c1ccc(F)cc1C(F)(F)F (racemic) | 
8.6 | CC(=O)c1ccc(-c2nnc(N3CCC(NC(=O)c4ccc(F)cc4C(F)(F)F)C3)c3ccccc23)cc1 (racemic) | 
